Calls of active or inactive are those of the source.
Experiments:
[1] = system: H4; assay: Luminescence Cell-Based Dose Response HTS to Identify Activators of 5'UTR Stem-Loop Driven Prion Protein mRNA Translation in H4 Neuroglioblastoma Cells. [Related pubchem assays: 1829 (Project Summary), 1814 (Primary HTS)]; type: functional; details: Homo sapiens
[2] = Luminescence Cell-Based Dose Confirmation HTS to Identify Activators of 5'UTR Stem-Loop Driven Alpha-Synuclein mRNA Translation in H4 Neuroglioblastoma Cells. [Related pubchem assays: 1829 (Project Summary), 1814 (Primary HTS)]; type: functional
[3] = Luminescence Cell-Based Dose Response HTS to Identify Activators of Luciferase Translation or Activity in H4 […] Cells. [Related pubchem assays: 1829 (Project Summary), 1814 (Primary HTS)]; type: functional
[4] = cells; type: functional
[5] = Luminescence Cell-Based Dose Retest to Confirm Inhibitors of Cancer Stem Cells. [Related pubchem assays (depositor defined):AID2717, AID2721]; type: functional; details: Homo sapiens
[6] = THP-1 cell cytotoxicity, dose response, cytotoxicity control for non-replicating M. tuberculosis project (AID 489025); type: functional
[7] = Vero E6 cell cytotoxicity, dose response, cytotoxicity control for non-replicating M. tuberculosis project, secondary assay (AID 492998); type: functional, VeroE6; details: Vero C1008
[8] = biological target: T1, Microphthalmia-associated transcription factor (Homo sapiens, UniProt O75030); assay: reducers of TRPM1 reporter luminescence, concentration series – cell-based, SK-MEL-5, cherry-picked, set 3, MITF inhibitor project, dose response (AID 493073); type: functional;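 also: SK-MEL-5 melanoma cells with luciferase driven by the MITF target TRPM1 promoter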
T1 sequence (O75030 whole entry): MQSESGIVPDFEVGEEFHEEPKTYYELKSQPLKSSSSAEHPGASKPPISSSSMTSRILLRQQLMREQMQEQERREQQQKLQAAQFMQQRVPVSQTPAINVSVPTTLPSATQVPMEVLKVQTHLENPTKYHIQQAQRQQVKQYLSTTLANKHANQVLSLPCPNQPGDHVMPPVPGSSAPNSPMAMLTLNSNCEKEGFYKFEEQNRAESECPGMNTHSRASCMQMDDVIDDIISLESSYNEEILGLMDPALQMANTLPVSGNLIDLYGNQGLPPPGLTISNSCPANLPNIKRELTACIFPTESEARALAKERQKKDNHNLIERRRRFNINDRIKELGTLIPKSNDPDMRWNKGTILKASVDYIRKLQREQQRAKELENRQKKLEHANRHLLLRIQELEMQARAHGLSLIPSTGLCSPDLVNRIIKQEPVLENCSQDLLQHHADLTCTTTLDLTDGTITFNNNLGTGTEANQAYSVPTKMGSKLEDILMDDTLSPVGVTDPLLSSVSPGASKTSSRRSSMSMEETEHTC

[9] = biological target: Peroxisome proliferator-activated receptor gamma/Nuclear receptor coactivator 2 (Homo sapiens, UniProt P37231); assay: (§1) TR-FRET dose response biochemical High Throughput Screening assay for agonists of the steroid receptor coactivator 2 (SRC-2) recruitment by the peroxisome proliferator-activated receptor gamma (PPAR gamma): non-selective agonists. [Related pubchem assays: 1297, 1032 ]; type: functional
[10] = biological target: Peroxisome proliferator-activated receptor gamma/Nuclear receptor coactivator 1 (Homo sapiens, UniProt P37231); assay: as §1, with “1 (SRC-1)” for “2 (SRC-2)”, “assays (depositor defined):AID1300, AID1808, AID504735, AID631]” for “assays: 1297, 1032 ]”; type: protein assay
[11] = biological target: Peroxisome proliferator-activated receptor gamma/Nuclear receptor coactivator 3 (Homo sapiens, UniProt P37231); assay: as §1, with “3 (SRC-3)” for “2 (SRC-2)”, “1301 (Confirmation screen.), 1048 (Primary screen.)]” for “1297, 1032 ]”; type: functional
[12] = biological target: T2, Hexokinase-1 (Homo sapiens, UniProt P19367); assay: HK1 enzyme activation by HKDC1 hits – biochemical, selectivity assay for HKDC1 activator project, dose response (AID 504762); type: functional
T2 sequence (P19367 whole entry): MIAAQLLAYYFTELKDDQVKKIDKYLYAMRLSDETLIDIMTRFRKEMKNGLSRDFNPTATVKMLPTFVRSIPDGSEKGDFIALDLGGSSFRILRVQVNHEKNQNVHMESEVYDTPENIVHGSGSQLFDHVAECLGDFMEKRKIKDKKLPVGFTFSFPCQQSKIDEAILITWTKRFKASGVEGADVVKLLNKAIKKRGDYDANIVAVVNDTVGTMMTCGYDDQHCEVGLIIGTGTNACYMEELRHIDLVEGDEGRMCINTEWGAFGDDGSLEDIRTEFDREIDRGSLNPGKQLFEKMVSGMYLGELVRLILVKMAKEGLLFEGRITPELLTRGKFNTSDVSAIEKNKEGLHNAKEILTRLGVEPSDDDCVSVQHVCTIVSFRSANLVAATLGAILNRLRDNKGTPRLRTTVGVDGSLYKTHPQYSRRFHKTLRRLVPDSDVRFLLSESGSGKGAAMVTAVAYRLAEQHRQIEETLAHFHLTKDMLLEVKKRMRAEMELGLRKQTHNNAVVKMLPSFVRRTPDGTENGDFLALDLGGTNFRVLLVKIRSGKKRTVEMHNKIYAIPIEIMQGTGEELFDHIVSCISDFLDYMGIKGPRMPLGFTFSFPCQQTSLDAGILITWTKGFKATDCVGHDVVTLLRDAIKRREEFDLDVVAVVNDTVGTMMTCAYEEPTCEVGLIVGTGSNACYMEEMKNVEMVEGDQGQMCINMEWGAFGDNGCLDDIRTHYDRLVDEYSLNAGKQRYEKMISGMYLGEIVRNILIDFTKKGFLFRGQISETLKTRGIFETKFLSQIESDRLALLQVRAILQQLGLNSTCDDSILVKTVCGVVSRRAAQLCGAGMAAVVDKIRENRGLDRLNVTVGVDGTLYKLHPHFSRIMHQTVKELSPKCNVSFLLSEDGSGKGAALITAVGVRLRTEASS

[13] = biological target: T3, Hexokinase HKDC1 (Homo sapiens, UniProt Q2TB90); assay: activation of HKDC1 glucose phosphorylation – biochemical, W721R variant, dose response (AID 504730); type: functional
T3 sequence (Q2TB90 whole entry): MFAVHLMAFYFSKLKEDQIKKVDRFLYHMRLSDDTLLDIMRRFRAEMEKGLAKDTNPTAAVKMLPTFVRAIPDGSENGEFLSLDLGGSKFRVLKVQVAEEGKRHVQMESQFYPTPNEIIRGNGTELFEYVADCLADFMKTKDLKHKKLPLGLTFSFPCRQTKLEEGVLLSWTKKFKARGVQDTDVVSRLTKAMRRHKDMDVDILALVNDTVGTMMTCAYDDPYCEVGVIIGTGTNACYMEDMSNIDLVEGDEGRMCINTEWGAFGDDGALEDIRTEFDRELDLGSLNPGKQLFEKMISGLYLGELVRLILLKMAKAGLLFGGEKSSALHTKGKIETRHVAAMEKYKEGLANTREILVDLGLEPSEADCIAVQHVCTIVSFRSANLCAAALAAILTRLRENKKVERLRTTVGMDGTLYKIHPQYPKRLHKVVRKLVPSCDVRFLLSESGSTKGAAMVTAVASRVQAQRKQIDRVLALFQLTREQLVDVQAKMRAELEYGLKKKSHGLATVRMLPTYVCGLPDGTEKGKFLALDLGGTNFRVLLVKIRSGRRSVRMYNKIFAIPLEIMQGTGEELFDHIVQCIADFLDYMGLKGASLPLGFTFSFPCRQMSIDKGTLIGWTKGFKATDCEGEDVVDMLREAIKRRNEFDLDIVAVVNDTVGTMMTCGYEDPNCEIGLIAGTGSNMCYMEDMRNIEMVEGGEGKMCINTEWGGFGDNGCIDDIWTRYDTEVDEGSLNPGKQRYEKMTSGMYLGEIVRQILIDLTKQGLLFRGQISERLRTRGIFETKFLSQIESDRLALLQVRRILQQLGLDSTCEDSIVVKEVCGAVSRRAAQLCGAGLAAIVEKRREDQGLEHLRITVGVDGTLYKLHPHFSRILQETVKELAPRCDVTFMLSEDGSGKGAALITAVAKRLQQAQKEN

[14] = Counterscreen for IDE inhibitors: Luminescence-based cell-based high throughput dose response assay to identify compounds that are cytotoxic to HEK cells. [Related pubchem assays: 434962 (Primary screen (IDE inhibitors in singlicate)), 449730 (Counterscreen (Cytotoxicity in triplicate)), 435028 (Confirmation (IDE inhibitors in triplicate)) …; type: functional; details: HEK293
[15] = biological target: T4, Insulin-degrading enzyme (Homo sapiens, UniProt P14735); assay: Dose Response: Fluorescence polarization-based cell-based high throughput dose response assay for inhibitors of insulin-degrading enzyme (IDE). [Related pubchem assays: 434962 (Primary screen (IDE inhibitors in singlicate)), 449730 (Counterscreen (Cytotoxicity in triplicate)), 435028 (Confirmation (IDE inhibitors in triplicate)), 434984 (Summary …; type: functional
T4 sequence (P14735 whole entry): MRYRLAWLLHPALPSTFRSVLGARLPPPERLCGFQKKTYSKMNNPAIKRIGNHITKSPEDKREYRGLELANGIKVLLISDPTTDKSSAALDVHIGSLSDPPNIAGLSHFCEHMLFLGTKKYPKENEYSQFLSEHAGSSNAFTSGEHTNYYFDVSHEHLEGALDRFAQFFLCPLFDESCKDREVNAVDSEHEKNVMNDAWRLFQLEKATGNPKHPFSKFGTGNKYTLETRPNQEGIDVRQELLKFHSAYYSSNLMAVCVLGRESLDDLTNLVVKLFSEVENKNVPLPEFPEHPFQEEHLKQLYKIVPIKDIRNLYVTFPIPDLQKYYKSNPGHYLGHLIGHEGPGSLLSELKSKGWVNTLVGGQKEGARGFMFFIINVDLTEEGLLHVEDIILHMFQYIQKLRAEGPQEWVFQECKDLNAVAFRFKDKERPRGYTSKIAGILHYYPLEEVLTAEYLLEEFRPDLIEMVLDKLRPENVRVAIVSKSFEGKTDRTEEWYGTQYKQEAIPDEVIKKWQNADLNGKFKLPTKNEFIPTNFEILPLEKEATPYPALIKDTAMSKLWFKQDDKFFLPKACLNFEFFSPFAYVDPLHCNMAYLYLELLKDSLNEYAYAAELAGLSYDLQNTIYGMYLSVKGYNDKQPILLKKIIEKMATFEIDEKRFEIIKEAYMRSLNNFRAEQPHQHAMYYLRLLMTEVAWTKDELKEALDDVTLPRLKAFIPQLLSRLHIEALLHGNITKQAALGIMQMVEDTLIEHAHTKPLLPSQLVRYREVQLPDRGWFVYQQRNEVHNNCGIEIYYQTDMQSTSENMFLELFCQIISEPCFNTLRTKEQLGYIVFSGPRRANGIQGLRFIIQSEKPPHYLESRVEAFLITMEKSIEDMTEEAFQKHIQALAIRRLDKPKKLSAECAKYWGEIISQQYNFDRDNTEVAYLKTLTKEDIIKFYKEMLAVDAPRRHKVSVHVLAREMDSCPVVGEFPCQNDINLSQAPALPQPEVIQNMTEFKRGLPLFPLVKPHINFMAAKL

[16] = biological target: Intestinal-type alkaline phosphatase (Homo sapiens, UniProt P09923); assay: activation of human intestinal alkaline phosphatase – biochemical, dose response (AID 488873); type: functional
[17] = biological target: Intestinal-type alkaline phosphatase (Mus musculus, UniProt P24822); assay: mouse intestinal alkaline phosphatase activators, dose response, biochemical, luminescence, uHTS hits (AID 488783); type: functional
[18] = biological target: Dual specificity tyrosine-phosphorylation-regulated kinase 1A (Rattus norvegicus, UniProt Q63470); type: biochemical, Homo sapiens
[19] = biological target: T5, Alkaline phosphatase, tissue-nonspecific isozyme (Homo sapiens, UniProt P05186); assay: activation of tissue-nonspecific alkaline phosphatase – biochemical, TNAP isozyme, mouse IAP uHTS hits, selectivity assay for mouse IAP activator project, dose response (AID 488880); type: functional
T5 sequence (P05186 whole entry): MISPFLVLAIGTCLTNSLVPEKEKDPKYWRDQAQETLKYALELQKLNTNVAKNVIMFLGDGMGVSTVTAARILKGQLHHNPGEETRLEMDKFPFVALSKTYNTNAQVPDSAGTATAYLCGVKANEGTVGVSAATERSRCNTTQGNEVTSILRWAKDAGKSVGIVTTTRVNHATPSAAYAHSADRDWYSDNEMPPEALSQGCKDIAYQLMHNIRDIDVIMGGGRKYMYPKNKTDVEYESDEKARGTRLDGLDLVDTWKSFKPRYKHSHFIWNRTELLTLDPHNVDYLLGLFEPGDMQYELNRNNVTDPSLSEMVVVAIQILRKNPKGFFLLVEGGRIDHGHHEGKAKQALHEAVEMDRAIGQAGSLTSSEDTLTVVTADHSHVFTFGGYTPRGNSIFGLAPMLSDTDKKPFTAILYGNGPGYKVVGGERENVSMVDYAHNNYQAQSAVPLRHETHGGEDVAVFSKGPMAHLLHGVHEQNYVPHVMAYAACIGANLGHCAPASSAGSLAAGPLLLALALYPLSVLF

[20] = biological target: Nonstructural protein 1 (Influenza A virus, UniProt Q194T2); type: functional, Influenza A virus (A/California/07/2009(H1N1))
[21] = biological target: Paired box protein Pax-8 (Homo sapiens, UniProt Q06710); assay: PAX8 transcriptional activity inhibition in RMG-I – RMG-I cells, luciferase, cherry-pick, dose response (AID 687027); type: functional, cell-based;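 also: luciferase reporter driven by Pax8 target thyroperoxidase promoter measured by SteadyGlo luminescence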
[22] = biological target: Heat shock protein HSP 90-alpha (Homo sapiens, UniProt P07900); type: functional, organism-based

Sequence of Peroxisome proliferator-activated receptor gamma/Nuclear receptor coactivator 2 (P37231 whole entry): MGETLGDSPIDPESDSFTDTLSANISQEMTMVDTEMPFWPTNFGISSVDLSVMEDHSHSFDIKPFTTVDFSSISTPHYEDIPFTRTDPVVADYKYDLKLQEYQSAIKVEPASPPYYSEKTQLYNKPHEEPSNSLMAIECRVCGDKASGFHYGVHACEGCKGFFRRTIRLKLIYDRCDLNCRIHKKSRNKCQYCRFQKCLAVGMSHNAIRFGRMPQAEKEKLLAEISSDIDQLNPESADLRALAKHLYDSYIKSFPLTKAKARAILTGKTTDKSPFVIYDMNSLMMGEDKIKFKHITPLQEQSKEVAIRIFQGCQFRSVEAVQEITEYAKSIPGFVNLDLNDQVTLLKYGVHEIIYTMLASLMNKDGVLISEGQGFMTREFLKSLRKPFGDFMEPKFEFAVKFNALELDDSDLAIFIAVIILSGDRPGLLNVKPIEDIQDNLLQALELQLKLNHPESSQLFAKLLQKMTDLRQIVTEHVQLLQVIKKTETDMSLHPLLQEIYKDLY
Sequence of Peroxisome proliferator-activated receptor gamma/Nuclear receptor coactivator 2 (Q15596 whole entry, further chain): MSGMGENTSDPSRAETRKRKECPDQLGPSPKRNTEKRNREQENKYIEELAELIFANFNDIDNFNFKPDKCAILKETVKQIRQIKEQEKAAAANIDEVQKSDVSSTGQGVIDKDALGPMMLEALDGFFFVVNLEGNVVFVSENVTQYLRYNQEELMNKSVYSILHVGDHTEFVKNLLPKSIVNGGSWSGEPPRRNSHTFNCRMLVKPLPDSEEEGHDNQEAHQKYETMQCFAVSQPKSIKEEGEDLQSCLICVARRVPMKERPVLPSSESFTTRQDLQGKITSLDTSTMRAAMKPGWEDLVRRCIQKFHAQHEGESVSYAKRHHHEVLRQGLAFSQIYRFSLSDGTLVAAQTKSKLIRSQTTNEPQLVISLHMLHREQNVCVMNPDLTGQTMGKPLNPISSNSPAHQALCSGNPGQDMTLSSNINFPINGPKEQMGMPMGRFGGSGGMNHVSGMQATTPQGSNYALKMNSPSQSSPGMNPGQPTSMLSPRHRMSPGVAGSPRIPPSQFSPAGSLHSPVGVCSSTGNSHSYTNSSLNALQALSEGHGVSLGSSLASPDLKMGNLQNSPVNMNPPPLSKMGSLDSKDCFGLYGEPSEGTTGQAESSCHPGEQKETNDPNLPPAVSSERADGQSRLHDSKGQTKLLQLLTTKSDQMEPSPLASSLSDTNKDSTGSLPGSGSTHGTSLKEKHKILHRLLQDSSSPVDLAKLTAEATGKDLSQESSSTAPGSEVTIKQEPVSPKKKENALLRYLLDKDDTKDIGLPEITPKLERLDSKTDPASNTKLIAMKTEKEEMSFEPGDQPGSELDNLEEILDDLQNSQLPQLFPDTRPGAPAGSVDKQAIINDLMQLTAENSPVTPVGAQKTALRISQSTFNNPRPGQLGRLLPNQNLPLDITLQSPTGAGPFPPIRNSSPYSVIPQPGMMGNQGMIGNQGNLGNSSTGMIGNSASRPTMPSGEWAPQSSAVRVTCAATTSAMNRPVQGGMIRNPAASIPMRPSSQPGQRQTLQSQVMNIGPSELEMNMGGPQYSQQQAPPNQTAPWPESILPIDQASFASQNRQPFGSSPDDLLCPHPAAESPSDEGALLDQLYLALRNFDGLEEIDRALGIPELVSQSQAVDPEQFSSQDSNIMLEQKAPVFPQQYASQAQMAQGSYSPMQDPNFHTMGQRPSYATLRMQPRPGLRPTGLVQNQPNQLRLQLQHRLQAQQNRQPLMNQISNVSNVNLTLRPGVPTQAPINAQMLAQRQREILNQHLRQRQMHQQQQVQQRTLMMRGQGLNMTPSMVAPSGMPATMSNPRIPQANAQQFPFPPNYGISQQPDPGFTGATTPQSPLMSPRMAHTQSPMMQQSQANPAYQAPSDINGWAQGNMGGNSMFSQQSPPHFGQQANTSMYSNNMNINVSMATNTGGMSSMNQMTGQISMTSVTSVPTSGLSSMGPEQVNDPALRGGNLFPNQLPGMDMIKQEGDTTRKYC
Sequence of Peroxisome proliferator-activated receptor gamma/Nuclear receptor coactivator 3 (P37231 whole entry): as the sequence (P37231 whole entry) above
Sequence of Peroxisome proliferator-activated receptor gamma/Nuclear receptor coactivator 3 (Q9Y6Q9 whole entry, further chain): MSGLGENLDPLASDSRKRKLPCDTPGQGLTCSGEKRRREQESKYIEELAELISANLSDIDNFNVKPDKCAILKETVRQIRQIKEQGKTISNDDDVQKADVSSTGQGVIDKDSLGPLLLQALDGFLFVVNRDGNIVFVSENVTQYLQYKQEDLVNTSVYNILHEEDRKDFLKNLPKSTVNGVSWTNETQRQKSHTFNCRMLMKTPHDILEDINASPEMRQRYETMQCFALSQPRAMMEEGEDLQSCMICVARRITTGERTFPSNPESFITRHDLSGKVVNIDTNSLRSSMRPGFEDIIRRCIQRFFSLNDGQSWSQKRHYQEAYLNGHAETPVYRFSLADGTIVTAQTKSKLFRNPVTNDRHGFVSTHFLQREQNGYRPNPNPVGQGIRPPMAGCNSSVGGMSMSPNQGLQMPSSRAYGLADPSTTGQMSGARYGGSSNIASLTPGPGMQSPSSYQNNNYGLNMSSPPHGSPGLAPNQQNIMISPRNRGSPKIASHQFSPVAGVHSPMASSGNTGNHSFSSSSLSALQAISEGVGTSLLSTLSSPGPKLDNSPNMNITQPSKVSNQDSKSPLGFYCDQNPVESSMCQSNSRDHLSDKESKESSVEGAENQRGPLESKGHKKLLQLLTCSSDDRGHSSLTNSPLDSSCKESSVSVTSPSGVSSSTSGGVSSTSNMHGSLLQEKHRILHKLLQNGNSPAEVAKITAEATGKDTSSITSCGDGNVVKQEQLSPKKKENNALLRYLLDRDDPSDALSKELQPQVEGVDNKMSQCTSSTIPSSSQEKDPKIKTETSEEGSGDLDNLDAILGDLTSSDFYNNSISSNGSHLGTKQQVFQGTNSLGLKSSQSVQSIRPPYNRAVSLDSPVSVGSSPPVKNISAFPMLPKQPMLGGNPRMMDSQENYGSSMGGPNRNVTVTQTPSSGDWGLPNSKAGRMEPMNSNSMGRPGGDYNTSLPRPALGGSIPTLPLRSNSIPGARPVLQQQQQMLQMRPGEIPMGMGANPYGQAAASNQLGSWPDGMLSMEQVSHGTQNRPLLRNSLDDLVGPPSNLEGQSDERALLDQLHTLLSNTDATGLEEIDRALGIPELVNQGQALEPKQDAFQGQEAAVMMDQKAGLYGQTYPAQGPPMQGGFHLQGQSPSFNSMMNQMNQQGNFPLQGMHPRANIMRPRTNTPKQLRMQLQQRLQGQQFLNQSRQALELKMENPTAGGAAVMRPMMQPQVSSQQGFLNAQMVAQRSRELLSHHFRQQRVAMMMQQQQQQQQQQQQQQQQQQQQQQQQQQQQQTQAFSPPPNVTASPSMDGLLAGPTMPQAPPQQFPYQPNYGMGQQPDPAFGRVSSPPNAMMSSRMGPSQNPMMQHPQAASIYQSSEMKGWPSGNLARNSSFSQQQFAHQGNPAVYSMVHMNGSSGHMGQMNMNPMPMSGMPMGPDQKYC
Sequence of Nonstructural protein 1 (Q194T2 whole entry): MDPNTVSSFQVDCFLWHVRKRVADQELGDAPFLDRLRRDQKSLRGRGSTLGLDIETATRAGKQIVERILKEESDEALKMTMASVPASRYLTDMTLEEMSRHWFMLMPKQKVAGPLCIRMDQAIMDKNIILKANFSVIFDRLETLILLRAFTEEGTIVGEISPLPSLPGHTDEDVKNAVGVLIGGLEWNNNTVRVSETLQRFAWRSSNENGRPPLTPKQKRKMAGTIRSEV
Sequence of Paired box protein Pax-8 (Q06710 whole entry): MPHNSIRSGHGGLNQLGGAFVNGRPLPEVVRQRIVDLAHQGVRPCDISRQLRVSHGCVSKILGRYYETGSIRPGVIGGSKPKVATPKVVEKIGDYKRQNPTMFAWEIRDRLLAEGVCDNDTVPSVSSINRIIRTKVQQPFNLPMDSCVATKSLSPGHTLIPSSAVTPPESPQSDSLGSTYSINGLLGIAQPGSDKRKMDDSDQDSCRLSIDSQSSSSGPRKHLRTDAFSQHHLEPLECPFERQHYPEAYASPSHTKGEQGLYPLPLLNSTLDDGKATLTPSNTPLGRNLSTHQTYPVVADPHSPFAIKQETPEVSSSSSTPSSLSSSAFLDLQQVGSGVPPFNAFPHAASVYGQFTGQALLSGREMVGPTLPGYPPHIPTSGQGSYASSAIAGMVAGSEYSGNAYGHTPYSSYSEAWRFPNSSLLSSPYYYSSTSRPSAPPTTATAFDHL

## O=C(Nc1cccc(S(=O)(=O)N2CCCCC2)c1)c1ccc([N+](=O)[O-])o1
[1]
  EC50: > 120 µM (not active)
[2]
  EC50: > 120 µM (not active)
[3]
  EC50: > 120 µM (not active)
[4]
  IC50: 5.03 µM (active)
[5]
  AC50: 2.44 µM (active)
[6]
  CC50: 8.73 µM (active)
[7]
  CC50: 4.29 µM (active)
[8]
  AC50: 11.9 µM (active)

## Fc1cccc(CSc2ncnc3c2oc2ccccc23)c1
[9]
  EC50: 14.3 µM (not active)
[10]
  EC50: 24.2 µM (inactive)
[11]
  EC50: 85.8 µM (not active)

## Cc1ccc2oc(=O)c3cnn(CC(=O)N4CCc5ccccc5C4)c3c2c1
[12]
  EC50: 36.7 µM (inactive)
[13]
  EC50: 16 µM (active)

## CSC1=NSC2=NC(=O)/C(=C/c3coc4ccc(O)cc4c3=O)C(=N)N12
[14]
  IC50: > 55.7 µM (not active)
[15]
  IC50: > 6.21 µM (active)
[16]
  EC50: 24.9 µM (active)
[17]
  EC50: 20.8 µM (active)
[18]
  AC50: 7.62 µM (active)
[19]
  EC50: 30.2 µM (active)

## O=C(CSc1ccccc1)Nc1ccc(C(=O)Nc2ccc(O)cc2)cc1
[9]
  EC50: 8.24 µM (active)
[10]
  EC50: 9.68 µM (active)
[11]
  EC50: 58.3 µM (not active)

## CC(=NNC(=S)N1CCN(C2CCCCCC2)CC1)c1ccccn1
[12]
  EC50: > 80 µM (inactive)
[20]
  IC50: 1.66 µM (active)
[13]
  EC50: 8.14 µM (active)
[21]
  AC50: < 0.26 µM (active)
[22]
  AC50: 3.35 µM (active)

Reference: ChEMBL document CHEMBL1201862, “PubChem BioAssay data set” (2004)
